Series [1] is described as follows: in vivo. Conditions: dog, iv, 0.5 mg/kg.
Series [2] in a line: in vivo. Conditions: dog, iv, 0.5 mg/kg. The source holds these as a separate data set.
The nature of series [3]: in vivo. Conditions: dog, po, 0.2 mg/kg.
Series [4] in a line: in vitro. Conditions: human, liver microsomes. In general terms: Microsomes from liver hold many membrane-bound enzymes, among them those of drug oxidation.
A short description of series [5]: in vivo. Conditions: dog, po, 0.2 mg/kg. This is another data set of the same source.
The nature of series [6]: in vitro. The conditions noted are these: dog, liver microsomes.
A short description of the next series: physchem. Conditions: octanol/water.
The next series is filed under the species Canis familiaris. The conditions noted are these: dog, in vivo, po, 0.2 mg/kg.

In turn, `COc1ccc(-n2nc(S(C)(=O)=O)c3c2C(=O)N(c2ccc(C4(Cn5ccnc5C)CC4)cc2)CC3)cc1.O=C(O)C(F)(F)F` displayed a Vd in “in vivo [1]” of 4 L/kg. The same molecule gave a clearance in the series “in vivo [2]” of 70 mL/min/kg. Besides, in the series “in vivo [3]”, the bioavailability was determined as 0.2%. In “in vitro [4]”, this molecule had a half-life of 0.0833 h.
Molecule `COc1ccc(-n2nc(C(N)=O)c3c2C(=O)N(c2ccc(C4(CN5CCCC5)CC4)cc2)CC3)cc1.O=C(O)C(F)(F)F` came in with a volume of distribution (Vd) in “in vivo [1]” of 7.1 L/kg. Also, the clearance in “in vivo [2]” is 28.3 mL/min/kg. The half-life in “in vivo [5]” is 4 h; in the series “in vitro [4]”, more than 3.33 h; in the series “in vitro [6]” it was 1 h. Also, the bioavailability in the series “in vivo [3]” was 6%.
The molecule `COc1ccc(N2N=C(S(C)(=O)=O)C3CCN(c4ccc(C5(CN6CCCC6)CC5)cc4)C(=O)C32)cc1.O=C(O)C(F)(F)F` (centres undefined) came in with a Vd in “in vivo [1]” of 7.7 L/kg. Moreover, the clearance in “in vivo [2]” was 55 mL/min/kg. For the same molecule, the half-life in “in vivo [5]” is 2.3 h; in “in vitro [4]”, 0.617 h. The molecule further returned a bioavailability in “in vivo [3]” of 100%.
For `COc1ccc(-n2nc(C(N)=O)c3c2C(=O)N(c2ccc(C4(CN5CCOCC5)CC4)cc2)CC3)cc1`, in “physchem”, the lipophilicity (logP) worked out at 3.3.
In the series “physchem”, `COc1ccc(-n2nc(C#N)c3c2C(=O)N(c2ccc(C4(CN5CCOCC5)CC4)cc2)CC3)cc1` had a logP of 4.
Same read-out and setting: the same measure for `CNCC1(c2ccc(N3CCc4c(C(F)(F)F)nn(-c5ccc(OC)cc5)c4C3=O)cc2)CC1`: 3.2; for `COc1ccc(-n2nc(C(F)(F)F)c3c2C(=O)N(c2ccc(C4(CN5CCCC5)CC4)cc2)CC3)cc1`: 3.4; for `COc1ccc(-n2nc(C(F)(F)F)c3c2C(=O)N(c2ccc(C4(CN(C)C)CC4)cc2)CC3)cc1`: 3.4.
`CNC1(c2ccc(N3CCc4c(C(N)=O)nn(-c5ccc(OC)cc5)c4C3=O)cc2)CC1.O=C(O)C(F)(F)F` registered a distribution volume (Vd) in “in vivo [1]” of 4.4 L/kg. In addition, the clearance in “in vivo [2]” is 30 mL/min/kg. Further, the half-life in “in vivo [5]” was 1.6 h; in the series “in vitro [4]”, 2.43 h; in “in vitro [6]”, 0.6 h. Moreover, the bioavailability in “in vivo [3]” is 15%.
Molecule `COc1ccc(-n2nc(C(N)=O)c3c2C(=O)N(c2ccc(C4(CC(N)=O)CC4)cc2)CC3)cc1.O=C(O)C(F)(F)F` displayed a Vd in the series “in vivo [1]” of 0.65 L/kg. Also, the clearance in the series “in vivo [2]” is 8.17 mL/min/kg. Also, the half-life in “in vivo [5]” is 1.9 h; in “in vitro [4]” it was 1.62 h; in “in vitro [6]”, 1.65 h. The molecule also came in with a bioavailability in “in vivo [3]” of 27%.
In “in vivo [1]”, `COc1ccc(-n2nc(C(N)=O)c3c2C(=O)N(c2ccc(C4(N(C)CCO)CC4)cc2)CC3)cc1.O=C(O)C(F)(F)F` displayed a Vd of 4.1 L/kg. Moreover, the clearance in “in vivo [2]” was 20 mL/min/kg. Also, the half-life was 4.3 h in the series “in vivo [5]”, 0.783 h in “in vitro [4]” and 3 h in the series “in vitro [6]”. The molecule also yielded a bioavailability in “in vivo [3]” of 67%.
In the series “in vivo [1]”, `COc1ccc(-n2nc(S(C)(=O)=O)c3c2C(=O)N(c2ccc(C4(CN5CCOCC5)CC4)cc2)CC3)cc1.O=C(O)C(F)(F)F` came in with a Vd of 1.9 L/kg. Besides, the clearance in the series “in vivo [2]” was 13.3 mL/min/kg. The results for the half-life in “in vivo [5]” and in “in vitro [4]” were 4 h and 0.417 h, respectively. The bioavailability in the series “in vivo [3]” is 61%.
In turn, `COc1ccc(-n2nc(C(N)=O)c3c2C(=O)N(c2ccc(C4(CN5CCCC5=O)CC4)cc2)CC3)cc1.O=C(O)C(F)(F)F` displayed a Vd in “in vivo [1]” of 0.2 L/kg. The same molecule gave a clearance in the series “in vivo [2]” of 4.17 mL/min/kg. Moreover, the half-life in the series “in vivo [5]” was 0.99 h; in the series “in vitro [4]” it was 0.167 h; in “in vitro [6]”, 0.183 h. For the same molecule, in the series “in vivo [3]”, the bioavailability came out at 3.1%.
`COc1ccc(-n2nc(C#N)c3c2C(=O)N(c2ccc(C4(CN(C)C)CC4)cc2)CC3)cc1.O=C(O)C(F)(F)F` showed a distribution volume (Vd) in “in vivo [1]” of 11.7 L/kg. Besides, the clearance in the series “in vivo [2]” is 22.8 mL/min/kg. The figures for the half-life in the series “in vivo [5]”, in “in vitro [4]” and in the series “in vitro [6]” were 6.4 h, 2.97 h and 1.22 h, respectively. In the series “in vivo [3]”, this molecule returned a bioavailability of 41%. This molecule also showed a logP in “physchem” of 2.5.
For the molecule `COc1ccc(-n2nc(C(N)=O)c3c2C(=O)N(c2ccc(N4CCCCC4=O)cc2)CC3)cc1` [APIXABAN], the Vd in “in vivo [1]” is 0.2 L/kg. In addition, the clearance in the series “in vivo [2]” is 0.333 mL/min/kg.
`CN(C)Cc1nccn1-c1ccc(NC(=O)c2cc(C(F)(F)F)nn2-c2ccc3onc(N)c3c2)c(F)c1` [RAZAXABAN] yielded a t1/2 in the series filed under Canis familiaris of 3.4 h.

The term Vd denotes a proportionality between amount in the body and measured concentration, not a real space. The clearance is the rate of elimination divided by the concentration. Lower therefore signals inefficient removal. Broadly, the bioavailability is the share of a dose that reaches the circulation, judged against a reference dose that is usually intravenous. A word on the half-life: it is the time in which the quantity being followed falls by half. High values mean slow decline, low ones rapid decline. The logP is a log measure of how a compound divides between an organic and an aqueous phase. A high value points to a more lipophilic compound.
